Active and inactive are the calls of the source.
Legend:
Prothrombin = Prothrombin (Homo sapiens, UniProt P00734); assay: Thrombin 1536 HTS Dose Response Confirmation. [Related pubchem assays: 1046 (Thrombin 1536 HTS; hits were confirmed in this assay)]; assay type: functional
cells [1] = assay: cells
Major prion protein = Major prion protein (Homo sapiens, UniProt P04156); assay type: functional, cell-based
Escherichia coli = assay: microbe, parasite or virus in culture
[2] = viability loss in THP-1 monocytes – THP-1 cells, cytotoxicity control for Vif-APOBEC3G degradation inhibitor project, dose response (AID 1117359); assay type: functional; conditions: THP-1
Protein Tat = target: T1, Protein Tat (Human immunodeficiency virus type 1 group M subtype B (isolate HXB2)(HIV-1), UniProt P04608); assay type: functional;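 note: tat binding to TAR RNA read out by fluorescence polarization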
T1 sequence (P04608 whole entry): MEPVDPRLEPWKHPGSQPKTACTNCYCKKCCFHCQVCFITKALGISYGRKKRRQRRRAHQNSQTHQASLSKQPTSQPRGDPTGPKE

Large T antigen = Large T antigen (Simian virus 40, UniProt P03070); assay type: functional, Betapolyomavirus macacae;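 note: Confirmatory-stage PubChem screen for compounds that inhibit SV40 T antigen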
[3] = luciferase reporter signal reduction – luminescence, H4-C neuroglioblastoma cells, dose response (AID 2458); assay type: functional, cell-based;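 note: H4 neuroglioblastoma cells stably carrying a luciferase reporter gene fusion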
cells [4] = assay type: functional, cell-based
[5] = alpha-synuclein stem-loop translation blockers – luminescence, H4 neuroglioblastoma cells, dose confirmation, confirmation (AID 2454); assay type: functional, cell-based;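 note: H4 neuroglioblastoma cells carrying an alpha-synuclein 5'UTR luciferase reporter; potency for inhibition of the luciferase signal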
[6] = alpha-synuclein stem-loop luciferase translation blockers – H4 neuroglioma cells, luminescence, confirmation (AID 1988); assay type: functional, cell-based
[7] = Luminescence-based dose response cell-based high throughput screening assay for cytotoxic compounds using the IEC-6 intestinal epithelial cell line. [Related pubchem assays: 1858 (Summary AID.), 1825 (Counterscreen.), 1907 (Confirmation screen.)]; assay type: functional
[8] = Luminescence Cell-Based Dose Response HTS to Identify Inhibitors of 5'UTR Stem-Loop Driven Prion Protein mRNA Translation in H4 Neuroglioblastoma Cells. [Related pubchem assays: 1827 (Project Summary), 1813 (Primary HTS)]; assay type: functional
[9] = HEK-293T viability loss after treatment – luminescence, T-cell screen hits, cytotoxicity control for TCR NF-kB inhibitor project, dose response (AID 489026); assay type: functional, cell-based;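 note: cells exposed to compound about 14 hours before the viability readout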
Kallikrein-7 = Kallikrein-7 (Homo sapiens, UniProt P49862); assay: Fluorescence Intensity-based biochemical primary high throughput dose response assay to identify activators of kallikrein-7 (K7) zymogen.
cells [10] = assay type: functional, cell-based; remark: listed apart in the source
[11] = viability loss in HEK293 cells – cell-based, plate reader, cherry-picked samples, cytotoxicity control, dose response (AID 743446); assay type: functional
[12] = blockade of melanocortin 4 receptor signaling – cell-based, plate reader, cherry pick, counter-screen for LGR2 antagonist project, dose response (AID 743444); assay type: functional;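 note: transfected HEK 293 cells stimulated with alpha-MSH peptide; potency of inhibitors of the alpha-MSH evoked signal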
[13] = target: T2, Nuclear receptor subfamily 0 group B member 1 (Homo sapiens, UniProt P51843); assay type: functional, cell-based;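 note: HEK293T cells transfected with SF-1 and DAX-1 plus StAR promoter luciferase reporter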
T2 sequence (P51843 whole entry): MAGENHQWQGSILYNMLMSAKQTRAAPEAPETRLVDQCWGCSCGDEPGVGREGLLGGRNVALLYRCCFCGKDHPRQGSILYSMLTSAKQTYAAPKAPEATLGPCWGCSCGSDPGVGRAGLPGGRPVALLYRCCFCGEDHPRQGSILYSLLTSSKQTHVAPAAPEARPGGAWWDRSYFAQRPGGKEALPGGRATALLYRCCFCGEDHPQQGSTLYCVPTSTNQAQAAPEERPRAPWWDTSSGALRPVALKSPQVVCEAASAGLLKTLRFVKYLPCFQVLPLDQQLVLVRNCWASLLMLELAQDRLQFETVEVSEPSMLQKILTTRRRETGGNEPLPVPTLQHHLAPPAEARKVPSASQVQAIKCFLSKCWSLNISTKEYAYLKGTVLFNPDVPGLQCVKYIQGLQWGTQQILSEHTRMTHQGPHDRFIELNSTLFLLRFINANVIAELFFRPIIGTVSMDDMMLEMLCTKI

[14] = blockers of bursicon-stimulated LGR2 cAMP reporter – cell-based, HEK293, CRE-luciferase reporter, cherry pick, set 2, dose response (AID 743343); assay type: functional;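 note: transfected cells were stimulated with diluted bursicon conditioned medium after compound addition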
Cytochrome P450 2D6 = Cytochrome P450 2D6 (Homo sapiens, UniProt P10635);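 note: CYP2D6 member of a cytochrome P450 panel assay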
cells [15] = assay: cells; remark: listed apart in the source
[16] = Trypanosoma cruzi growth suppression in host cells – NIH3T3 host cells, beta-gal luminescence, confirmation (AID 2044); assay type: functional, cell-based;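 note: intracellular parasites grown in NIH/3T3 mouse fibroblasts as host cells; luminescent beta-galactosidase reporter signal from transgenic T. cruzi replicating inside host cells; inhibitors lower the luminescence signal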
Cytochrome P450 3A4 = Cytochrome P450 3A4 (Homo sapiens, UniProt P08684);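 note: CYP3A4 tested as one member of a cytochrome P450 panel screen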
[17] = NIH3T3 cell viability loss – ATP luminescence, mouse fibroblasts, counter-screen, dose response (AID 2010); assay type: functional, cell-based;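 note: cells exposed to compound for about 90 hours before reading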
[18] = target: T3, Long-chain-fatty-acid--AMP ligase FadD28 (Mycobacterium tuberculosis, UniProt P9WQ59); assay: Fluorescence polarization aasay to screen for inhibitors that compete for the binding of FadD28 to a bisubstrate Measured in Biochemical System Using Plate Reader - 2147-01_Inhibitor_Dose_CherryPick_Activity.; assay type: functional, Mycobacterium tuberculosis H37Rv
T3 sequence (P9WQ59 whole entry): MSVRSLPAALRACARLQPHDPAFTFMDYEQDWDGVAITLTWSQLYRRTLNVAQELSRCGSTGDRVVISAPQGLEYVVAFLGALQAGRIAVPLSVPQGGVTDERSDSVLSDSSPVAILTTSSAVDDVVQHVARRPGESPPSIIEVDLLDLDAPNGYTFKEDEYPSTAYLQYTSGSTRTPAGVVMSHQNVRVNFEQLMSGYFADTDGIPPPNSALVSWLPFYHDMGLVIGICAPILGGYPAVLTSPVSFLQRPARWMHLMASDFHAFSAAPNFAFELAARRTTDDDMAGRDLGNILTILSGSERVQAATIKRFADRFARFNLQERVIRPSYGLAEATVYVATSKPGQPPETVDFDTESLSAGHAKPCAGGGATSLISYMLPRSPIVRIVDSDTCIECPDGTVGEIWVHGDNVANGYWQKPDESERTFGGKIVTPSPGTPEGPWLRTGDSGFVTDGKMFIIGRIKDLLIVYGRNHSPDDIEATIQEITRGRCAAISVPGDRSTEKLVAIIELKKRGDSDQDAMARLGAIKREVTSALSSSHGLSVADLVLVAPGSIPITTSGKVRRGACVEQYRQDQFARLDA

[19] = target: T4, Heat shock factor protein 1 (Mus musculus, UniProt P38532); assay: decrease of HSF1-responsive luciferase luminescence – cell-based, NIH3T3, dose retest, confirmation (AID 2382); assay type: functional;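 note: NIH3T3 fibroblasts with HSF1-driven luciferase reporter stressed by proteasome inhibitor MG132; luminescence from HSF1-driven luciferase expression after 8 hours of MG132 stress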
T4 sequence (P38532 whole entry): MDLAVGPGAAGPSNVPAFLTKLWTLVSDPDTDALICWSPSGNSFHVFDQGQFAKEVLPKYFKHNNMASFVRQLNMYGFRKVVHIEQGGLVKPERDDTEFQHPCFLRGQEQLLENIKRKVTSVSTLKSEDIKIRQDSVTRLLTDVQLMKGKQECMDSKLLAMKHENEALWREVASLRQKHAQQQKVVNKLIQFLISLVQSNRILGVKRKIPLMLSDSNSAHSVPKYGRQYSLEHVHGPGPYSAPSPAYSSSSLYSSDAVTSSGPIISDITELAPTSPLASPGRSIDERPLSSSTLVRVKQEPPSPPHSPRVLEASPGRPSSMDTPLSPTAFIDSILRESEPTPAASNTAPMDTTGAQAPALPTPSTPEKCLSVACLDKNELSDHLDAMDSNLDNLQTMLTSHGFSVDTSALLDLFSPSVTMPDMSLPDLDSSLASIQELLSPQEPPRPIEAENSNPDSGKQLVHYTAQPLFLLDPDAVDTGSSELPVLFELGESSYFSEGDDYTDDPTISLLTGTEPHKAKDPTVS

COc1ccc(N(C(=O)c2ccco2)S(=O)(=O)c2ccccc2)cc1
IC50 (Prothrombin): 4.64 µM (active)

COc1ccc(S(=O)(=O)N2CCOCC2)cc1NC(=O)CSc1ncnc2ccccc12
IC50 (cells [1]): > 138 µM (inactive)
IC50 (Major prion protein): 2.66 µM (active)

Cc1c(NC(=O)CN2CCN(c3ccc(O)cc3)CC2)c(=O)n(-c2ccccc2)n1C
AC50 (Escherichia coli): 38.1 µM (active)
CC50 [2]: > 40 µM (active)
IC50 (Protein Tat): > 100 µM (active)
IC50 (Large T antigen): 13.7 µM (active)

CC/C=C/CC(=O)N[C@@H](c1ccccc1)[C@@H](O)C(=O)O[C@H]1C[C@@]2(O)[C@@H](OC(=O)c3ccccc3)C3[C@](C)(C(=O)[C@H](OC(C)=O)C(=C1C)C2(C)C)[C@@H](O)C[C@H]1OC[C@@]31OC(C)=O (some centres undefined)
EC50 [3]: 0.062 µM (active)
EC50 (cells [4]): 0.307 µM (active)
EC50 [5]: 0.021 µM (active)
EC50 [6]: < 0.1 µM (active)
IC50 [7]: 0.0795 µM (active)
EC50 [8]: < 0.1 µM (active)
IC50 [9]: > 80 µM (inactive)

COc1ccc(NC(=O)c2ccc(S(=O)(=O)N3CC(C)CC(C)C3)cc2)cc1S(N)(=O)=O (centres undefined)
EC50 (Kallikrein-7): 14.7 µM (inactive)

Cc1cc(C(=O)CSc2nnc(N)s2)c(C)n1Cc1cccs1
IC50 (cells [10]): > 67.5 µM (inactive)
AC50 [11]: > 52 µM (inactive)
AC50 [12]: 4.27 µM (active)
IC50 [13]: > 0.278 µM (active)
AC50 [14]: 3.93 µM (active)

CC1=C(C#N)C(=O)N(C)C(C)(C)C1
IC50 (Protein Tat): > 100 µM (active)

Cc1ccc(CCN2CC(C(=O)NCCCN(C)Cc3ccccc3)CC2=O)cc1 (centres undefined)
AC50 (Cytochrome P450 2D6): 14.1 µM (inconclusive)
EC50 (cells [15]): 0.033 µM (active)
EC50 [16]: < 0.1 µM (active)
AC50 (Cytochrome P450 3A4): 31.6 µM (inconclusive)
EC50 [17]: 15.8 µM (active)

O=C(COC(=O)c1cccc(NS(=O)(=O)c2ccc(F)c(F)c2)c1)NC(=O)NC1CCCCC1
AC50 [18]: 19.9 µM (active)

CN(C)CCN(C(=O)c1ccc(S(=O)(=O)N(C)C)cc1)c1nc2cc3c(cc2s1)OCCO3
EC50 (cells [15]): 0.069 µM (active)
EC50 [16]: < 0.1 µM (active)
EC50 [17]: > 30 µM (not active)

OC1CCN(Cc2cccc(Oc3ccccc3)c2)CC1
EC50 (cells [15]): 0.073 µM (active)
EC50 [16]: < 0.1 µM (active)
EC50 [19]: > 195 µM (not active)
EC50 [17]: > 30 µM (not active)

— ChEMBL document CHEMBL1201862, “PubChem BioAssay data set” (2004)
